Test [1] deals with Recombinant human ENPP1 protein (Homo sapiens (Human), UniProt P22413). Kind of test: ENPP1 cGAMP Biochemical Assay. As to conditions: 0.5 nM ENPP1, 1000 nM 2′3′-cGAMP substrate, TR-FRET. As for the experimental part: ENPP1 cGAMP Biochemical Assay
Compounds were added to 384 well Proxiplate (PerkinElmer, Waltham MA) at 100 nl/well from DMSO stocks using Echo (Labcyte, San Jose CA). Recombinant human ENPP1 protein (R&D Systems, Minneapolis MN) was prepared in assay buffer (50 mM Tris pH7.5, 1 mM TCEP pH7.0, 2 mM MgCl2 and 0.005% Tween20) and added at 10 μl/well. The plate was sealed, centrifuged at 1000 rpm for 1 minute and incubated at room temperature for 30 minutes before 5 μl substrate 2′3′-cGAMP (R&D Systems, Minneapolis MN) in assay buffer was added to each well to a final concentration of 0.5 nM ENPP1 and 1000 nM 2′3′-cGAMP. The plate was sealed and centrifuged at 1000 rpm for 1 minute again. After incubation at 25° C. for 60 minutes, Terbium labelled AMP/GMP antibody and AMP/GMP HiLyte647 Tracer (BellBrook Labs, Fitchburg WI) in detection buffer (50 mM Tris pH7.5, 20 mM EDTA and 0.1% Prionex) were added to the reaction mixture to a final concentration of 2 nM (5 μl/well). The assay plate was incubated at room temperature for 120 minutes. TR-FRET signal was detected using Envision (PerkinElmer, Waltham MA).
In general terms: Time-resolved FRET reads energy transfer from a long-lived donor to a nearby acceptor.

The target of test [2] is Recombinant human ENPP3 protein (Homo sapiens (Human), UniProt O14638). Put plainly: ENPP3 cGAMP Biochemical Assay. As to conditions: 70.5 nM ENPP3, 120 μM 2′3′-cGAMP substrate, TR-FRET. As for the experimental part:
ENPP3 cGAMP Biochemical Assay
Compounds were added to 384 well Proxiplate (PerkinElmer, Waltham MA) at 100 nl/well from DMSO stocks using Echo (Labcyte, San Jose CA). Recombinant human ENPP3 protein (Acro Biosystems, Newwark DE) was prepared in assay buffer (50 mM Tris pH7.5, 1 mM TCEP pH7.0, 2 mM MgCl2, 2 mM CaCl2), 2 mM ZnCl2 and 0.005% Tween20) and added at 2 μl/well. The plate was sealed, centrifuged at 1000 rpm for 1 minute and incubated at room temperature for 30 minutes before 2 μl substrate 2′3′-cGAMP (R&D Systems, Minneapolis MN) in assay buffer was added to each well to a final concentration of 70.5 nM ENPP3 and 120 μM 2′3′-cGAMP. The plate was sealed and centrifuged at 1000 rpm for 1 minute again. After incubation at 25° C. for 60 minutes, Terbium labelled AMP/GMP antibody and AMP/GMP HiLyte647 Tracer (BellBrook Labs, Fitchburg WI) in detection buffer (50 mM Tris pH7.5, 20 mM EDTA and 0.1% Prionex) were added to the reaction mixture to a final concentration of 475 nM and 3 nM respectively. The assay plate was incubated at room temperature for 120 minutes. TR-FRET signal was detected using Envision (PerkinElmer, Waltham MA).

SMILES strings stand for the structures. Bounds are passed on as bounds.

For orientation: IC50 means the concentration at which inhibition is half-maximal.

Chain of Recombinant human ENPP3 protein (O14638 whole entry): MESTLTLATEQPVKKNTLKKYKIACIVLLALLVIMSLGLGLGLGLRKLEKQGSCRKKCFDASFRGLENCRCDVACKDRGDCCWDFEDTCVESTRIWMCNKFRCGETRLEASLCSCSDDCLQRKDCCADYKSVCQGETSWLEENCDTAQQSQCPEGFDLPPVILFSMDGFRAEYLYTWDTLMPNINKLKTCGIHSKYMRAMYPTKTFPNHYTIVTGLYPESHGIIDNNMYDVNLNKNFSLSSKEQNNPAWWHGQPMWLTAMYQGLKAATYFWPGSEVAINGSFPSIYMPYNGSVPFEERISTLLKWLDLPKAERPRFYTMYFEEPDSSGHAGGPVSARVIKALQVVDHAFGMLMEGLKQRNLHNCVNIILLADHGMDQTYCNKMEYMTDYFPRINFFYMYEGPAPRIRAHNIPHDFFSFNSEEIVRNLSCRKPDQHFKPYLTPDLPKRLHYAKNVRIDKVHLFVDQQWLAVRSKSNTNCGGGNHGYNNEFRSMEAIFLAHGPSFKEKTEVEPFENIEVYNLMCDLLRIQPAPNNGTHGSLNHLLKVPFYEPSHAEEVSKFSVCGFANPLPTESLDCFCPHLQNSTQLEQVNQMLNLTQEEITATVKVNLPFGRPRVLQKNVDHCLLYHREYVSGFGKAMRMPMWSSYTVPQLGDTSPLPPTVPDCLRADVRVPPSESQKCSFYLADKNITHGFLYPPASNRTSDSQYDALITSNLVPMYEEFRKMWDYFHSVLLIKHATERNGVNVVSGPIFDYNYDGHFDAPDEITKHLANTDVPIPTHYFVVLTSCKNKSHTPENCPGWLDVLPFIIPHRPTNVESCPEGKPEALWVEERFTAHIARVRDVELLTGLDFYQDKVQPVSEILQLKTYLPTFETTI
Chain of Recombinant human ENPP1 protein (P22413 whole entry): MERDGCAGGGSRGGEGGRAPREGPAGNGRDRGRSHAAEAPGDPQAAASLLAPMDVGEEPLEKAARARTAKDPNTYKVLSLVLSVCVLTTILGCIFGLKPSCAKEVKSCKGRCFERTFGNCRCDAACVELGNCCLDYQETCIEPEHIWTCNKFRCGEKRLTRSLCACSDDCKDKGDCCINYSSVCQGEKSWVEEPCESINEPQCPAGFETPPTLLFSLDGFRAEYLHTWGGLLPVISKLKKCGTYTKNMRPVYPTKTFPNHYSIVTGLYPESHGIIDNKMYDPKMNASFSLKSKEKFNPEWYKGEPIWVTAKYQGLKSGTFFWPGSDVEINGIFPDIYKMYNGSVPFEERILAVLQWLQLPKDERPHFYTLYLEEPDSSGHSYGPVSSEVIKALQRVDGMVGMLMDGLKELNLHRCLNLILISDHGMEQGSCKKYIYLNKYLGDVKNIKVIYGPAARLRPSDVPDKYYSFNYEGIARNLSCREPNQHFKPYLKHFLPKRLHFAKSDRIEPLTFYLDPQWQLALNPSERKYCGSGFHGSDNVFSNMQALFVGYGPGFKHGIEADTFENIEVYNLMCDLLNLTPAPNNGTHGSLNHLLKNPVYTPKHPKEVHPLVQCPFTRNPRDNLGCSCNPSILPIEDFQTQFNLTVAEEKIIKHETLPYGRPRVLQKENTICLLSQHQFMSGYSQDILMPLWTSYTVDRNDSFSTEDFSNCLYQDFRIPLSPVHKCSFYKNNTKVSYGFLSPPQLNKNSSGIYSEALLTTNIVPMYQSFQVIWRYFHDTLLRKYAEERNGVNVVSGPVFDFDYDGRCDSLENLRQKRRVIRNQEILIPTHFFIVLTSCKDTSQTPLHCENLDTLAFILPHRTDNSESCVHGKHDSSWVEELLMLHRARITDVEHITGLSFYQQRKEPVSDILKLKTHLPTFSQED

`CCn1ncc2c(OCc3ccc(S(N)(=O)=NC)cc3)ccnc21` (centres unmarked) [Compound 7A, 4-(((1-ethyl-1H-pyrazolo[3,4-b]pyridin-4-yl)oxy)methyl)-N′-methylbenzenesulfonimidamide]: the IC50 is 100 to 1000 nM in test [1] and no less than 1000 nM in test [2].

Regarding `C#CCn1nc(Cl)c2c(NCC3CCN([S@](C)(=O)=NC#N)CC3)ccnc21` [Compound 14J, (R)-N-((4-(((3-chloro-1-(prop-2-yn-1-yl)-1H-pyrazolo[3,4-b]pyridin-4-yl)amino)methyl)piperidin-1-yl)(methyl)(oxo)-λ6-sulfaneylidene)cyanamide], the IC50 in test [1] was 100 to 1000 nM; in test [2] it was no less than 1000 nM.

Consider `C#CCn1nc(Cl)c2c(NCc3ccc(S(C)(=O)=NC)cc3)ccnc21` (centres unmarked) [Compound 10A, (4-(((3-chloro-1-(prop-2-yn-1-yl)-1H-pyrazolo[3,4-b]pyridin-4-yl)amino)methyl)phenyl)(methyl)(methylimino)-λ6-sulfanone], for which the IC50 in test [1] is 100 to 1000 nM; in test [2] it was no less than 1000 nM.

Regarding `CCn1nc(Cl)c2c(NCC3CCN([S@@](C)(=N)=O)CC3)ccnc21` [Compound 13G, (R)-3-chloro-1-ethyl-N-((1-(S-methylsulfonimidoyl)piperidin-4-yl)methyl)-1H-pyrazolo[3,4-b]pyridin-4-amine], the IC50 in test [1] was 10 to 100 nM; in test [2] it was no less than 1000 nM.

For the compound `CCn1nc(Cl)c2c(NCc3ccc(S(=N)(=O)CC)cc3)ccnc21` (centres unmarked) [Compound 9K, (4-(((3-chloro-1-ethyl-1H-pyrazolo[3,4-b]pyridine-4-yl)amino)methyl)phenyl)(ethyl) (imino)-λ^6-sulfanone], the figures for the IC50 in test [1] and in test [2] were less than 10 nM and 100 to 1000 nM, respectively.

As to `C[S@@](=N)(=O)c1ccc(CNc2ccnc3c2c(Cl)nn3CC#N)cc1` [Compound 9H, (R)-2-(3-chloro-4-((4-(S-methylsulfonimidoyl)benzyl)amino)-1H-pyrazolo[3,4-b]pyridin-1-yl)acetonitrile], the IC50 in test [1] was less than 10 nM; in test [2] it was 10 to 100 nM.

`CS(=N)(=O)c1ccc(COc2ccnc3c2c(Cl)nn3CC#N)cc1` (centres unmarked) [Compound 8A, 2-(3-chloro-4-((4-(S-methylsulfonimidoyl)benzyl)oxy)-1H-pyrazolo[3,4-b]pyridin-1-yl) acetonitrile]: the IC50 is less than 10 nM in test [1] and 100 to 1000 nM in test [2].

For `CCn1nc(Cl)c2c(NCc3ccc([S@](N)(=O)=NC)cc3)ccnc21` [Compound 12D, (R)-4-(((3-chloro-1-ethyl-1H-pyrazolo[3,4-b]pyridin-4-yl)amino)methyl)-N′-methyl benzenesulfonimidamide], the concentration for half-maximal inhibition (IC50) was 10 to 100 nM in test [1] and no less than 1000 nM in test [2].

On to `CCn1nc(Cl)c2c(Nc3ccc(S(N)(=O)=NC#N)cc3)ccnc21` (centres unmarked) [Compound 5G, 4-((3-chloro-1-ethyl-1H-pyrazolo[3,4-b]pyridin-4-yl)amino)-N′-cyanobenzenesulfonimidamide], for which the IC50 in test [1] is 10 to 100 nM; in test [2] it was no less than 1000 nM.

For the compound `CCn1ncc2c(NCc3ccc(S(=N)(N)=O)cc3)cc(-c3ncc[nH]3)nc21` (centres unmarked) [Compound 2C, 4-(((1-ethyl-6-(1H-imidazol-2-yl)-1H-pyrazolo [3,4-b]pyridin-4-yl)amino)methyl)benzene sulfonimidamide], the half-maximal inhibitory concentration (IC50) in test [1] and in test [2] was 100 to 1000 nM throughout.

Regarding `CCN=S(N)(=O)c1ccc(Nc2ccnc3c2c(Cl)nn3CC)cc1` (centres unmarked) [Compound 5E, 4-((3-chloro-1-ethyl-1H-pyrazolo[3,4-b]pyridin-4-yl)amino)-N′-ethylbenzenesulfonimidamide], the IC50 in test [1] is less than 10 nM; in test [2], 100 to 1000 nM.

As to `CCn1nc(Cl)c2c(NCc3ccc([S@@](C)(=N)=O)cc3)ccnc21` [Compound 9M, (S)-(4-(((3-chloro-1-ethyl-1H-pyrazolo[3,4-b]pyridin-4-yl)amino)methyl)phenyl)(imino) (methyl)-λ^6-sulfanone], the IC50 in test [1] was 10 to 100 nM; in test [2] it was no less than 1000 nM.

As for `C#CCn1nc(Cl)c2c(N(C)Cc3ccc(S(C)(=N)=O)cc3)ccnc21` (centres unmarked) [Compound 9A, (4-(((3-chloro-1-(prop-2-yn-1-yl)-1H-pyrazolo [3,4-b]pyridin-4-yl)(methyl)amino)methyl)phenyl)(imino)(methyl)-λ^6-sulfanone], the IC50 in test [1] was less than 10 nM; in test [2] it was 10 to 100 nM.

On to `CCn1nc(Cl)c2c(Nc3ccc(S(N)(=O)=NC4CC4)cc3)ccnc21` (centres unmarked) [Compound 5I, 4-((3-chloro-1-ethyl-1H-pyrazolo[3,4-b]pyridin-4-yl)amino)-N′-cyclopropylbenzenesulfonimidamide], for which the values for the IC50 in test [1] and in test [2] were less than 10 nM and no less than 1000 nM, respectively.

On to `CCn1ncc2c(Nc3ccc(S(N)(=O)=NC)cc3)ccnc21` (centres unmarked) [Compound 5B, 4-((1-ethyl-1H-pyrazolo[3,4-b]pyridin-4-yl)amino)-N′-methylbenzenesulfonimidamide], for which the results for the IC50 in test [1] and in test [2] were 10 to 100 nM and no less than 1000 nM, respectively.

For `CCn1nc(Cl)c2c(NCC3CCN(S(=N)(N)=O)CC3)ccnc21` (centres unmarked) [Compound 1C, 4-(((3-chloro-1-ethyl-1H-pyrazolo[3,4-b]pyridin-4-yl)amino)methyl)piperidine-1-sulfonimidamide], the IC50 in test [1] is 10 to 100 nM; in test [2] it was no less than 1000 nM.

Take `CCn1ncc2c(Oc3ccc(S(N)(=O)=NCC4CC4)cc3)ccnc21` (centres unmarked) [Compound 16A, N′-(cyclopropylmethyl)-4-((1-ethyl-1H-pyrazolo [3,4-b]pyridin-4-yl)oxy)benzenesulfonimidamide]: the IC50 in test [1] and in test [2] was no less than 1000 nM in each case.

In the case of `C[S@@](=N)(=O)N1CCC(CNc2ccnc3c2c(Cl)nn3CC#N)CC1` [Compound 13E, (S)-2-(3-chloro-4-(((1-(S-methylsulfonimidoyl)piperidin-4-yl)methyl)amino)-1H-pyrazolo[3,4-b]pyridin-1-yl)acetonitrile], the 50% inhibitory concentration (IC50) was less than 10 nM in test [1] and 10 to 100 nM in test [2].

With `C#CCn1nc(Cl)c2c(N(C)Cc3ccc(S(N)(=O)=NC)cc3)ccnc21` (centres unmarked) [Compound 3C, 4-(((3-chloro-1-(prop-2-yn-1-yl)-1H-pyrazolo[3,4-b]pyridin-4-yl)(methyl)amino)methyl)-N′-methylbenzenesulfonimidamide], the figures for the IC50 in test [1] and in test [2] were less than 10 nM and 100 to 1000 nM, respectively.

Consider `CCn1nc(Cl)c2c(NCC3CCN(S(=N)(=O)CCC(=O)O)CC3)ccnc21` (centres unmarked) [Compound 14F, 3-(4-(((3-chloro-1-ethyl-1H-pyrazolo[3,4-b]pyridin-4-yl)amino)methyl)piperidine-1-sulfonimidoyl)propanoic acid], for which the IC50 in test [1] was less than 10 nM; in test [2] it was 100 to 1000 nM.

`CCn1nc(Cl)c2c(NCC3CCN([S@](=N)(=O)CCOC)CC3)ccnc21` [Compound 14D, (S)-3-chloro-1-ethyl-N-((1-(2-methoxyethylsulfonimidoyl)piperidin-4-yl)methyl)-1H-pyrazolo[3,4-b]pyridin-4-amine]: the IC50 in test [1] was 10 to 100 nM; in test [2] it was no less than 1000 nM.

`C[S@](=N)(=O)N1CCC(CNc2ccnc3c2c(Cl)nn3CC#N)CC1` [Compound 13F, (R)-2-(3-chloro-4-(((1-(S-methylsulfonimidoyl)piperidin-4-yl)methyl)amino)-1H-pyrazolo[3,4-b]pyridin-1-yl)acetonitrile]: the values for the IC50 in test [1] and in test [2] were 100 to 1000 nM and no less than 1000 nM, respectively.

Turning to `CCn1ncc2c(NCc3ccc(S(=N)(N)=O)cc3)ncnc21` (centres unmarked) [Compound 2D, 4-(((1-ethyl-1H-pyrazolo[3,4-d]pyrimidin-4-yl)amino)methyl)benzenesulfonimidamide], the IC50 in test [1] was 10 to 100 nM; in test [2] it was no less than 1000 nM.

On to `C#CCn1nc(Cl)c2c(NCC3CCN(S(=N)(N)=O)CC3)ccnc21` (centres unmarked) [Compound 15I, 4-(((3-chloro-1-(prop-2-yn-1-yl)-1H-pyrazolo[3,4-b]pyridin-4-yl)amino)methyl)piperidine-1-sulfonimidamide], for which the IC50 in test [1] was less than 10 nM; in test [2], 100 to 1000 nM.

As to `C#CCn1nc(Cl)c2c(N(C)Cc3ccc([S@@](C)(=N)=O)cc3)ccnc21` [Compound 9C, (S)-(4-(((3-chloro-1-(prop-2-yn-1-yl)-1H-pyrazolo[3,4-b]pyridin-4-yl)(methyl)amino)methyl)phenyl)(imino)(methyl)-λ^6-sulfanone], the IC50 in test [1] was less than 10 nM; in test [2] it was no less than 1000 nM.

The record behind these values is patent US20260049084A1, “ENPP1 MODULATORS AND PRODUCTS AND USES THEREOF” (Gossamer Bio Services, Inc., priority 2022, published 2026).
